{"source": "ChEMBL document CHEMBL5053504", "about": "“Potent Inhibition of HIF1α and p300 Interaction by a Constrained Peptide Derived from CITED2” (J Med Chem, 2021)", "key": {"[1]": {"molecular_target": "T1, CREB-binding protein/Histone acetyltransferase p300 (Homo sapiens, UniProt Q09472+Q92793)", "T1 sequence (Q09472 whole entry, looked up, the tested form may be a part)": "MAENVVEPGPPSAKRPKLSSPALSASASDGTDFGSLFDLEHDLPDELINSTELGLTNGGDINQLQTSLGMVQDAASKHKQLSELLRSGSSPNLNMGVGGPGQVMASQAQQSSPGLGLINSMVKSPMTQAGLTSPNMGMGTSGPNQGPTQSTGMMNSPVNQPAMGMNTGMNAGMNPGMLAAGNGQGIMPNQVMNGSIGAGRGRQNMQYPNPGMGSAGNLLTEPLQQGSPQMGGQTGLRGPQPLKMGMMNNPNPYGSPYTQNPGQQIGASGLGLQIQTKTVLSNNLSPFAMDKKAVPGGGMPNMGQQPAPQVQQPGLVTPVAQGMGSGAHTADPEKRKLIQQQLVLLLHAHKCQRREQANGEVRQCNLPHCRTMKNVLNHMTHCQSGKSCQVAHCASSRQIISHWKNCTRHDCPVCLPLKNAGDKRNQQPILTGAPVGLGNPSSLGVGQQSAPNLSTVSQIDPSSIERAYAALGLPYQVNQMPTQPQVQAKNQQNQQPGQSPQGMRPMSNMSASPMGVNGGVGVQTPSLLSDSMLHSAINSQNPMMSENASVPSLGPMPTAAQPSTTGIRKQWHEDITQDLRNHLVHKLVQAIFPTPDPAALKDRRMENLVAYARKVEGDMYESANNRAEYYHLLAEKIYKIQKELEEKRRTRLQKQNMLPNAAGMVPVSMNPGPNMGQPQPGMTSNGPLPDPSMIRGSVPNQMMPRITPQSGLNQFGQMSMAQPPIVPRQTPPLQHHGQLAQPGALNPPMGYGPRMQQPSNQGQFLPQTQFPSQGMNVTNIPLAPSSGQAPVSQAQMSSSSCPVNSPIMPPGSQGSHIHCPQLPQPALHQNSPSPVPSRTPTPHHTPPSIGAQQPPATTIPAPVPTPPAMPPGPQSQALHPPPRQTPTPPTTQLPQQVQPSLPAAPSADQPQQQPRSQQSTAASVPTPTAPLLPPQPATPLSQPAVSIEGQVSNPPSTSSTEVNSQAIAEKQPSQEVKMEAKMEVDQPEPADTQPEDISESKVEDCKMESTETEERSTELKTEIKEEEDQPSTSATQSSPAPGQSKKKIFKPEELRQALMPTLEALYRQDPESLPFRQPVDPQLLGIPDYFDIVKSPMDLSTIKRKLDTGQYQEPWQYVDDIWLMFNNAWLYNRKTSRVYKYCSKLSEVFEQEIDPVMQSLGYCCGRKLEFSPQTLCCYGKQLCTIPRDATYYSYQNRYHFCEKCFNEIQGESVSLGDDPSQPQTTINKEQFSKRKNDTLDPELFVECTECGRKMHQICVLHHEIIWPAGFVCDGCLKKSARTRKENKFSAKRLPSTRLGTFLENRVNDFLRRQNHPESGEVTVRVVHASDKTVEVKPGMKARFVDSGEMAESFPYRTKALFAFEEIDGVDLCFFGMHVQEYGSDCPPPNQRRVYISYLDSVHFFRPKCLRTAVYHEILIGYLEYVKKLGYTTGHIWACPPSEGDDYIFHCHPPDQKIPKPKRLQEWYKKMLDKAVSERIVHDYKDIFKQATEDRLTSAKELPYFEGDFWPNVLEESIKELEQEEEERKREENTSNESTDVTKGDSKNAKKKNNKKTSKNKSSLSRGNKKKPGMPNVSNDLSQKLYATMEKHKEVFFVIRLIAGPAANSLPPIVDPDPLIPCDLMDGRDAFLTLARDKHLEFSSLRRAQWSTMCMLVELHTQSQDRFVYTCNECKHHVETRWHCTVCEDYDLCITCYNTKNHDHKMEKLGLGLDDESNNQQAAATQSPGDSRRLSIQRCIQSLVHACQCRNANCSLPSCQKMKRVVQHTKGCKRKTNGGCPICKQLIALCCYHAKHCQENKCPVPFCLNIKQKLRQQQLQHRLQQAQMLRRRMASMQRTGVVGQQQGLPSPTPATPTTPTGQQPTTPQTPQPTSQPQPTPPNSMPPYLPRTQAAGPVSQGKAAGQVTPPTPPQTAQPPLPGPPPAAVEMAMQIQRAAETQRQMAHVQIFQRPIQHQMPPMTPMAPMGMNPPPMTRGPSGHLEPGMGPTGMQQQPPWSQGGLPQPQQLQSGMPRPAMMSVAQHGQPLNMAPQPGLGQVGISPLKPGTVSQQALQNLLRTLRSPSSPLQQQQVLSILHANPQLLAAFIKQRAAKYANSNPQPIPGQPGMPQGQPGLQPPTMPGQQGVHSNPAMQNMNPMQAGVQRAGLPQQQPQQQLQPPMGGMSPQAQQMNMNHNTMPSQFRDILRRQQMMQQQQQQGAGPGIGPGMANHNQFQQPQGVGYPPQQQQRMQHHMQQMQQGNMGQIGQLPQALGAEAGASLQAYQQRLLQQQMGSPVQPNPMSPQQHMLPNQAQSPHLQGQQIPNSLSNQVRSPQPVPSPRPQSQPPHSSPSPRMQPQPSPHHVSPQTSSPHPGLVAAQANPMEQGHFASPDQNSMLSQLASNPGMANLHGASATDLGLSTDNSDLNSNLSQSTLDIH", "T1 sequence (Q92793 whole entry, looked up, the tested form may be a part)": "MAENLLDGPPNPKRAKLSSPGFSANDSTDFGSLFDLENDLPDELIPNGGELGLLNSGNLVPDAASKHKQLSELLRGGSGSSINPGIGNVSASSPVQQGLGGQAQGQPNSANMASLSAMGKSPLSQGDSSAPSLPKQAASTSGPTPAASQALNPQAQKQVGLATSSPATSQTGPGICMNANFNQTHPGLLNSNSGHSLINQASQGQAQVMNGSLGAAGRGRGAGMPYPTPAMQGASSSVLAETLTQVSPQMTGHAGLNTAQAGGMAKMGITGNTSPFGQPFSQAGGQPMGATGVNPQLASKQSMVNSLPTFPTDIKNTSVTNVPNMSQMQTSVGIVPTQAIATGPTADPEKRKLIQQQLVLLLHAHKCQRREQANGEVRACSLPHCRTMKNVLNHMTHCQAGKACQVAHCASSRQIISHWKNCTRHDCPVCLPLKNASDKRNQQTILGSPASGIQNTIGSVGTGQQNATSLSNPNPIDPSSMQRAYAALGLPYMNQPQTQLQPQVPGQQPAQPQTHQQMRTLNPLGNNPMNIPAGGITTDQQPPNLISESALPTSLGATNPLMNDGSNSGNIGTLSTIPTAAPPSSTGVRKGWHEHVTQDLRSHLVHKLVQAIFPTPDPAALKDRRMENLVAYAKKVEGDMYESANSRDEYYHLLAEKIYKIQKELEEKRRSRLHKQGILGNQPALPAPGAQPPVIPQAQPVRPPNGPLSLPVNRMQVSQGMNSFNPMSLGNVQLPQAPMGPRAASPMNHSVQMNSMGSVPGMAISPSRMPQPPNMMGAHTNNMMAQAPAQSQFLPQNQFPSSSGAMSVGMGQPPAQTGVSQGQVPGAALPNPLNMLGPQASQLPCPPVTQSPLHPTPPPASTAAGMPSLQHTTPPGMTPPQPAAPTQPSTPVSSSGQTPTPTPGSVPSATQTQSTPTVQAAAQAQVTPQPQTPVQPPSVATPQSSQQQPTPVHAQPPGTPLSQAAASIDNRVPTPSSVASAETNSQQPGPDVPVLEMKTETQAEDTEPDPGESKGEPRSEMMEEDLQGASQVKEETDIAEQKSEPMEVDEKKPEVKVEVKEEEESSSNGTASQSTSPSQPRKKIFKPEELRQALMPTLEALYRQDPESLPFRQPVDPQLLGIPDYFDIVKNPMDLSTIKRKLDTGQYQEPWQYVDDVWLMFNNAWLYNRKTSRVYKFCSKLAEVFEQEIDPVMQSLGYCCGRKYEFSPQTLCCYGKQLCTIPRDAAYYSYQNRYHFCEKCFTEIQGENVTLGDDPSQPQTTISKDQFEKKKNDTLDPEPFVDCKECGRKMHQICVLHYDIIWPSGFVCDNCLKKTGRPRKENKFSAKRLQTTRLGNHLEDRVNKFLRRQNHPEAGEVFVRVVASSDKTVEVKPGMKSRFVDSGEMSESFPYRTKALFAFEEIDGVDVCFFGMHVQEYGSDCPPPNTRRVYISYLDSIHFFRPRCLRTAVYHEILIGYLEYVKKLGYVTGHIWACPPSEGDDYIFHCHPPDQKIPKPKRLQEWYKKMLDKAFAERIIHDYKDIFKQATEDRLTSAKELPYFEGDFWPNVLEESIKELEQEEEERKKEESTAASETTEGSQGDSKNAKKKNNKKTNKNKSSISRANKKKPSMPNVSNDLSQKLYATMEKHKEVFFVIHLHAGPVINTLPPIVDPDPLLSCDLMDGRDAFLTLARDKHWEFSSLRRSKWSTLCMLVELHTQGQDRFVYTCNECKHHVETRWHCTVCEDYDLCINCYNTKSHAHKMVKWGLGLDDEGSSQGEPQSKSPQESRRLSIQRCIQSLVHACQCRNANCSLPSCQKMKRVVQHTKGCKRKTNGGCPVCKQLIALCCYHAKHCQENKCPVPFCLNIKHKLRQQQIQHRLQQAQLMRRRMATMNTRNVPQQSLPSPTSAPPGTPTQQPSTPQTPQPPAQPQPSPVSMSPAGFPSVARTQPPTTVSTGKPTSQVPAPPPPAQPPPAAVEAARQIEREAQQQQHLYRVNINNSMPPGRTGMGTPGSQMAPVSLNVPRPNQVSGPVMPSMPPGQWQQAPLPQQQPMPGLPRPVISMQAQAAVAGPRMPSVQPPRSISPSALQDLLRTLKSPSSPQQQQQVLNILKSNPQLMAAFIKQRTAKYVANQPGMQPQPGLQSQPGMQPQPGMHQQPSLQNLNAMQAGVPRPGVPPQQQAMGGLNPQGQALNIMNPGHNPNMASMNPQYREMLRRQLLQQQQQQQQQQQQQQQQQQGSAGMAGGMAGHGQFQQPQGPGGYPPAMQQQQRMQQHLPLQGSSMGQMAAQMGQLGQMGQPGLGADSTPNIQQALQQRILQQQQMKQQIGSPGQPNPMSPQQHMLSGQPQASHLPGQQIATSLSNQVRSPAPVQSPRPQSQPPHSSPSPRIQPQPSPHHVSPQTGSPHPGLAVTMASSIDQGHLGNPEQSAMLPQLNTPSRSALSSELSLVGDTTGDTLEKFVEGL", "test": "Binding affinity to His-tagged human CH1 domain of p300 (323 to 423 residues)expressed in Escherichia coli Rosetta (DE3)/CBP (unknown origin) by fluorescence polarization assay"}, "[2]": {"test": "Drug uptake in human HeLa cells measured after 4 hrs by tryphan blue staining based flow cytometry", "assay_type": "ADME, cell-based"}, "[3]": {"test": "Stability of the compound in mouse serum by LC/MS analysis", "assay_type": "ADME, cell-free"}, "[4]": {"molecular_target": "T1, CREB-binding protein/Histone acetyltransferase p300", "test": "Binding affinity to p300/CBP in hypoxia-induced human HeLa cells assessed as p300/CBP pull down at 25 uM measured after 12 hrs pulldown-based Western blot analysis"}, "HeLa [5]": {"system": "HeLa", "test": "Cytotoxicity against human HeLa cells assessed as cell membrane disruption measured after 4 hrs under hypoxia condition by LDH assay", "assay_type": "functional, cell-based"}, "[6]": {"molecular_target": "T2, HIF1A/p300/CREB-binding protein (Homo sapiens) (UniProt Q09472+Q16665+Q92793)", "test": "Inhibition of hypoxia-induced HIF1alpha/P300-CBP interaction mediated gene transcriptional activity in human HeLa cells co-transfected with luciferase reporter plasmid containing HRE and pRL-CMV vector at 25 uM incubated for 24 hrs under hypoxic condition by HRE-dependent dual luciferase reporter gene assay", "assay_type": "cell-based"}, "[7]": {"molecular_target": "T2, HIF1A/p300/CREB-binding protein (Homo sapiens)", "test": "Inhibition of hypoxia-induced HIF1alpha/P300-CBP interaction in human HeLa cells at 10 uM measured after 24 hrs by co-immunoprecipiation assay", "assay_type": "cell-based"}, "MDA-MB-231": {"system": "MDA-MB-231", "test": "Cytotoxicity against human MDA-MB-231 cells assessed as cell growth inhibition measured after 24 hrs by MTT assay", "assay_type": "functional, cell-based"}, "HeLa [8]": {"system": "HeLa", "test": "Downregulation of VEGF mRNA expression in human HeLa cells at 25 uM measured after 24 hrs under hypoxia condition by RT-PCR analysis", "assay_type": "functional, cell-based"}, "HeLa [9]": {"system": "HeLa", "test": "Downregulation of GLUT1 protein expression in human HeLa cells at 25 uM measured after 24 hrs under hypoxia condition by Western blot analysis", "assay_type": "functional, cell-based"}, "HeLa [10]": {"system": "HeLa", "test": "Downregulation of GLUT1 mRNA expression in human HeLa cells at 25 uM measured after 24 hrs under hypoxia condition by RT-PCR analysis", "assay_type": "functional, cell-based"}, "HeLa [11]": {"system": "HeLa", "test": "Cytotoxicity against human HeLa cells assessed as cell growth inhibition measured after 24 hrs by MTT assay", "assay_type": "functional, cell-based"}, "HeLa [12]": {"system": "HeLa", "test": "Cytotoxicity against human HeLa cells assessed as reduction in cell viability measured after 24 hrs under hypoxia condition by MTT assay", "assay_type": "functional, cell-based"}, "HeLa [13]": {"system": "HeLa", "test": "Downregulation of HK1 mRNA expression in human HeLa cells at 25 uM measured after 24 hrs under hypoxia condition by RT-PCR analysis", "assay_type": "functional, cell-based"}, "[14]": {"molecular_target": "T2, HIF1A/p300/CREB-binding protein (Homo sapiens)", "test": "Inhibition of HA-tagged CTAD (786 to 826 residues) HIF1alpha/Flag-tagged P300 CH1 domain (323 to 423 residues)/CBP (unknown origin) interaction expressed in HEK293T cells measured after 24 hrs by co-iimunoprecipitation assay", "assay_type": "cell-based"}, "HeLa [15]": {"system": "HeLa", "test": "Downregulation of HK1 protein expression in human HeLa cells at 25 uM measured after 24 hrs under hypoxia condition by Western blot analysis", "assay_type": "functional, cell-based"}, "HeLa [16]": {"system": "HeLa", "test": "Downregulation of VEGF protein expression in human HeLa cells at 25 uM measured after 24 hrs under hypoxia condition by Western blot analysis", "assay_type": "functional, cell-based"}, "A549": {"system": "A549", "test": "Cytotoxicity against human A549 cells assessed as cell growth inhibition measured after 24 hrs by MTT assay", "assay_type": "functional, cell-based"}}, "note": "Calls of active or inactive are those of the source. No cut-off for these calls is given here. Where a SMILES comes first, the peptide text is derived from it."}
{"compound": "CC[C@H](C)[C@H](NC(=O)[C@H](CCCNC(=N)N)NC(=O)[C@H](CC(=O)O)NC(=O)[C@H](CC(C)C)NC(=O)CNC(=O)[C@H](CCSC)NC(=O)[C@H](CCC(=O)O)NC(=O)[C@@H](NC(=O)[C@@H](NC(=O)[C@H](CC(C)C)NC(=O)[C@H](CO)NC(=O)[C@H](CCSC)NC(=O)[C@H](CC(C)C)NC(=O)[C@@H](NC(=O)[C@H]1CNC(=O)[C@@H](N)CC(=O)N[C@@H](CC(=O)O)C(=O)N[C@@H](CCC(=O)O)C(=O)N1)C(C)C)C(C)C)[C@@H](C)CC)C(=O)N[C@@H](CCCCN)C(=O)N[C@@H](CCC(=O)O)C(=O)N[C@@H](CC(C)C)C(=O)N1CCC[C@H]1C(=O)N[C@@H](CCC(=O)O)C(=O)N[C@@H](CC(C)C)C(N)=O", "values": [{"measurement": "Kd", "setting": "[1]", "result": 0.0337, "unit": "µM"}]}
{"compound": "H-DEEVLWSLVIEMGLDRWKELPEL-OH", "values": [{"measurement": "Kd", "setting": "[1]", "result": 0.0362, "unit": "µM"}]}
{"compound": "H-DEEVLMSLVIEMGLDRWKELPEL-OH", "values": [{"measurement": "Drug uptake", "setting": "[2]", "result": "Active"}]}
{"compound": "H-DEEVLMSLVIEMGLDRIKELPEL-OH", "values": [{"measurement": "Kd", "setting": "[1]", "result": 0.0371, "unit": "µM"}]}
{"compound": "H-GLDRIKELPELWLG-OH", "values": [{"measurement": "Kd", "setting": "[1]", "result": 1.544, "unit": "µM"}]}
{"compound": "H-QNEFDFMTDF-OH", "values": [{"measurement": "Kd", "setting": "[1]", "result": 0.3125, "unit": "µM"}]}
{"compound": "H-DEEILMSLVIEMGLDRWKELPEL-OH", "values": [{"measurement": "Kd", "setting": "[1]", "result": 0.0223, "unit": "µM"}, {"measurement": "Stability", "setting": "[3]", "result": "Stable"}, {"measurement": "Activity", "setting": "[4]", "result": "Active"}, {"measurement": "Activity", "setting": "HeLa [5]", "result": "Active"}]}
{"compound": "CC[C@H](C)[C@H](NC(=O)[C@@H]1CNC(=O)[C@@H](N)CC(=O)N[C@@H](CC(=O)O)C(=O)N[C@@H](CCC(=O)O)C(=O)N1)C(=O)N[C@@H](CC(C)C)C(=O)N[C@@H](CCSC)C(=O)N[C@@H](CO)C(=O)N[C@@H](CC(C)C)C(=O)N[C@H](C(=O)N[C@H](C(=O)N[C@@H](CCC(=O)O)C(=O)N[C@@H](CCSC)C(=O)NCC(=O)N[C@@H](CC(C)C)C(=O)N[C@@H](CC(=O)O)C(=O)N[C@@H](CCCNC(=N)N)C(=O)N[C@@H](Cc1c[nH]c2ccccc12)C(=O)N[C@@H](CCCCN)C(=O)N[C@@H](CCC(=O)O)C(=O)N[C@@H](CC(C)C)C(=O)N1CCC[C@H]1C(=O)N[C@@H](CCC(=O)O)C(=O)N[C@@H](CC(C)C)C(N)=O)[C@@H](C)CC)C(C)C", "note": "(HELM PEPTIDE1{D.E.[O=C([C@H](CN[*:3])N[*:1])[*:2]].I.L.M.S.L.V.I.E.M.G.L.D.R.W.K.E.L.P.E.L.[am]}|CHEM1{[N[C@@H](CC(=O)[*:1])C(=O)[*:2]]}$PEPTIDE1,CHEM1,1:R1-1:R1|PEPTIDE1,CHEM1,3:R3-1:R2$$$V2.0)", "values": [{"measurement": "Kd", "setting": "[1]", "result": 0.0214, "unit": "µM"}, {"measurement": "inhibition", "setting": "[6]", "result": "Active"}, {"measurement": "inhibition", "setting": "[7]", "result": "Active"}, {"measurement": "growth inhibition (GI)", "setting": "MDA-MB-231", "result": "Active"}, {"measurement": "Activity", "setting": "HeLa [8]", "result": "Active"}, {"measurement": "Stability", "setting": "[3]", "result": "Stable"}, {"measurement": "Activity", "setting": "HeLa [9]", "result": "Active"}, {"measurement": "Activity", "setting": "HeLa [10]", "result": "Active"}, {"measurement": "growth inhibition (GI)", "setting": "HeLa [11]", "result": "Active"}, {"measurement": "growth inhibition (GI)", "setting": "HeLa [12]", "result": "Active"}, {"measurement": "Activity", "setting": "HeLa [13]", "result": "Active"}, {"measurement": "inhibition", "setting": "[14]", "result": "Active"}, {"measurement": "Activity", "setting": "HeLa [15]", "result": "Active"}, {"measurement": "Activity", "setting": "HeLa [16]", "result": "Active"}, {"measurement": "Activity", "setting": "[4]", "result": "Active"}, {"measurement": "Activity", "setting": "A549", "result": "Active"}]}
{"compound": "H-DEEVLMSLVIEMGLDRIKELPELWLGQNEFDFMTDF-OH", "values": [{"measurement": "Kd", "setting": "[1]", "result": 0.0177, "unit": "µM"}]}
{"compound": "H-DEEVLMSLVIEM-OH", "values": [{"measurement": "Kd", "setting": "[1]", "result": 0.2282, "unit": "µM"}]}
{"compound": "H-DEEILWSLVIEMGLDRWKELPEL-OH", "values": [{"measurement": "Kd", "setting": "[1]", "result": 0.0295, "unit": "µM"}]}
{"compound": "H-LPELWLGQNEFDFMTDF-OH", "values": [{"measurement": "Kd", "setting": "[1]", "result": 0.226, "unit": "µM"}]}
{"compound": "H-DEEVLWSLVIEMGLDRIKELPEL-OH", "values": [{"measurement": "Drug uptake", "setting": "[2]", "result": "Active"}]}
{"compound": "H-DEEILWSLVIEMGLDRIKELPEL-OH", "values": [{"measurement": "Kd", "setting": "[1]", "result": 0.032, "unit": "µM"}, {"measurement": "Activity", "setting": "HeLa [5]", "result": "Active"}]}
{"compound": "H-DEEILMSLVIEMGLDRIKELPEL-OH", "values": [{"measurement": "Drug uptake", "setting": "[2]", "result": "Active"}]}
